Values of other authors in patent US20230321590A1, “AQUEOUS LIQUID SORBENT” (COMPACT CARBON CAPTURE AS, priority 2020, published 2023).

Conditions: literature values

| Compound | Reaction rate constant at 25° C. |
| --- | --- |
| CC(C)(N)CO [2-amino-2-methyl-1-propanol (AMP), 2-amino-2-methyl-1-propanol] | 810 m^3kmol^−1s^−1 |
| OCCNCCO [Diethanolamine (DEA), Diethanolamine] | 2375 m^3kmol^−1s^−1 |
| NCCOCCO [Diglycolamine (DGA), Diglycolamine] | 6663 m^3kmol^−1s^−1 |
| CC(O)CNCC(C)O (stereo not drawn) [Diisopropanolamine (DIPA), Diisopropanolamine] | 2585 m^3kmol^−1s^−1 |
| NCCO [Monoethanolamine (MEA), Monoethanolamine] | 7000 m^3kmol^−1s^−1 |
| C1CNCCN1 [Piperazine] | 53700 m^3kmol^−1s^−1 |
